Measured values as given in patent US20210369699A1, “TREATMENT OF LUPUS ERYTHEMATOSUS USING S-HYDROXYCHLOROQUINE” (Genovate Biotechnology Co. Ltd., priority 2020, published 2021).
Where two headings read alike, the source gives them in different places.

Tests used:
[1] = Body weight of treated MRL/lpr mice
Protocol: Pharmacodynamics of HCQ, S-HCQ, and R-HCQ was examined in MRL/lpr mice, a model for human cutaneous lupus erythematosus. […] Eight-week old MRL/lpr mice, were purchased from Jackson Laboratory (ME, USA) and maintained on a 12 h light and dark cycle with constant temperature and humidity control. Animals were given water and food ad-libitum.
Groups of 14-15 mice were treated starting at the age of −15 weeks old with vehicle (10% EtOH in PBS), with low dose (20 mg/kg) or high dose (40 mg/kg) HCQ, S-HCQ, or R-HCQ. Mice in the vehicle and low dose groups were treated orally once daily for 16 weeks from age 15 to 31 weeks. Mice in the high dose groups were treated orally once daily for 14 weeks from age 15 to 29 weeks. Dosing volumes were kept consistent at 10 mL/kg.
MRL/lpr mice treated with vehicle or with 20 mg/kg HCQ, S-HCQ, or R-HCQ were weighed once per week from day 0 (initial day of dosing) to day 111. Animals in the 40 mg/kg groups were weighed daily from day 0 to day 90.

[2] = test system: MRL/lpr mice; assay: Blood urea nitrogen and creatinine concentration in plasma of MRL/lpr mice; type: in vivo; conditions: end of study; for creatinine concentration in plasma: FIG. 4B
Protocol: (§1) See Furukawa et al., 1996, J. Invest. Dermatol. 107; 95-100; Furukawa et al., 2009, Autoimmun. Rev. 8:495-499; and Shimomatsu et al., 2016, Mod. Rheumatol. 26:744-748. […] Animals were given water and food ad-libitum.
(§2) Dosing volumes were kept consistent at 10 mL/kg.
Plasma was prepared from blood samples collected at the end of the study. They were analyzed for blood urea nitrogen (BUN) level and creatinine concentration using a FUJI DRI-CHEM 4000i instrument as directed by the manufacturer. Elevated BUN and creatinine levels indicate compromised kidney function.

[3] = test system: IL-17 production in human peripheral blood mononuclear cells (PBMC); assay: IL-17 production in PMA/ionomycin-stimulated PBMC (ELISA); type: cell-based; conditions: for IL-17 pg/mL (mean ± SD): n = 3; for inhibition at 25 µM / inhibition at 50 µM / inhibition at 100 µM / inhibition at 5 µM: PBMC; for inhibition at 25 µM / inhibition at 50 µM / inhibition at 100 µM / (%) inhibition / inhibition at 5 µM: IL-17 synthesis
Protocol: Hydroxychloroquine (HCQ) and its pure optical isomers S-hydroxychloroquine (S-HCQ; enantiomeric excess of 99.0%) and R-hydroxychloroquine (R-HCQ; enantiomeric excess of 98.3%) were tested in an in vitro pharmacodynamic assay to determine their efficacy at inhibiting interleukin 17 (IL-17) production in human peripheral blood mononuclear cells (PBMC) stimulated with phorbol myristate acetate (PMA) and ionomycin.
Cells were cultured at 37° C. with 5% CO2 in RPMI-1640 medium (Gibco, 11875-093) supplemented with 10% Fetal Bovine Serum (Gibco, 10437-028), 10 mM HEPES (Gibco, 15630-080), and 100 U/mL Penicillin/Streptomycin (Gibco, 15140-122).
PBMC were seeded at a density of 10^6 cells/ml in each well of a 96-well round bottom microplate (Corning, 7007) then stimulated with 25 ng/ml PMA and 1 μg/ml ionomycin in the absence and presence of 25 μM, 50 μM, or 100 μM HCQ, S-HCQ or R-HCQ each dissolved in ethanol. The final concentration of ethanol in the culture medium was 0.75%. PBMC treated with 5 μM methylprednisolone served as a positive control.
After incubation for 48 or 72 hours, the cell culture supernatants were collected and stored at −80° C. until analysis. The levels of IL-17 induced by PMA/ionomycin-stimulated PBMC were analyzed using human IL-17 Quantikine ELISA Kit (R & D system, D1700) according to product information.

[4] = molecular target: T1, human ether-a-go-go-related gene (hERG) voltage-gated potassium channel (Homo sapiens, UniProt Q12809); assay: In vitro cardiotoxicity assay: hERG patch-clamp in HEK-293 cells
T1 sequence (Q12809 whole entry): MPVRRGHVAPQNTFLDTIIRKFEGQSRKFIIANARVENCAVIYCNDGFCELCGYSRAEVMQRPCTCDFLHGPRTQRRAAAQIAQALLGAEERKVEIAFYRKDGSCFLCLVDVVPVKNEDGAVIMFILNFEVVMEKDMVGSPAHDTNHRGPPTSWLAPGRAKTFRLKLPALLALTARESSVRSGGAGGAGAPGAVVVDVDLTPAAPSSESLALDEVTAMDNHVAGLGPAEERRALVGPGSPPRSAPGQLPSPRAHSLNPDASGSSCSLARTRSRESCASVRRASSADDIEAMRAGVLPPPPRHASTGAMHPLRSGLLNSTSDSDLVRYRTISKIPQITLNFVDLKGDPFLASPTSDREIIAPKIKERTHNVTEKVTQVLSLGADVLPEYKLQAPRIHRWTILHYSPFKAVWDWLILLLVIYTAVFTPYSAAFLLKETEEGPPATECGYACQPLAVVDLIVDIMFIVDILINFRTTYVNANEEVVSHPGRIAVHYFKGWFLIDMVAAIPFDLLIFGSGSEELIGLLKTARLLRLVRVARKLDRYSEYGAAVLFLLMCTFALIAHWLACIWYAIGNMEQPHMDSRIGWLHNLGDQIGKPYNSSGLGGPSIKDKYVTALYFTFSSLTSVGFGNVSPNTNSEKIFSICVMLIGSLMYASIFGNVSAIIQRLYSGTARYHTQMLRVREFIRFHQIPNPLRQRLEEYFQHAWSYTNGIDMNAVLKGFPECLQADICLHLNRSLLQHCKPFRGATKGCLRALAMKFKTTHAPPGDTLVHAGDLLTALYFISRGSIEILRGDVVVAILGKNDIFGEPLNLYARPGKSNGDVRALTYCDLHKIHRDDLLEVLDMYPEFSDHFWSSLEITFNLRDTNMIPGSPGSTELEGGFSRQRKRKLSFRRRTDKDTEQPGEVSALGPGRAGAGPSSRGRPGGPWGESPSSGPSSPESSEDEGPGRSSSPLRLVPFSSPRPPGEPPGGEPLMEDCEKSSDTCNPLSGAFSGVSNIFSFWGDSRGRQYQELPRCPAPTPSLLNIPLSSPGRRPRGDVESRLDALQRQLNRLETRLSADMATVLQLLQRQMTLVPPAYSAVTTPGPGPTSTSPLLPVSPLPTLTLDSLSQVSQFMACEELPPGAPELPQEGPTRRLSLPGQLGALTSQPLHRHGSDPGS
Protocol: (§3) A conventional patch-clamp technique was used to determine inhibitory effects on hERG. Human embryonic kidney cells (HEK-293) stably transfected with human hERG cDNA were plated on collagen-coated 35-mm cell culture dishes at low density for 1-7 days. For single-cell patch-clamp recording, the intracellular solution contained 130 mM KCl, 10 mM NaCl, 1 mM MgCl2, 10 mM EGTA, 5 mM MgATP, and 10 mM HEPES (pH adjusted to 7.2 with KOH). The extracellular solution contained acellular Solution (mM): 137 mM NaCl, 4 mM KCl, 1.8 mM CaCl2, 1 mM MgCl2, 10 mM D(+)-Glucose, and 10 mM HEPES (pH adjusted to 7.4 with NaOH). All measurements were performed at room temperature.
(§4) After cell capture, a pulse protocol was implemented that involved stepping from a holding potential of −80 mV to +40 mV for 4 s to inactivate hERG channels. The membrane voltage was then stepped back to −50 mV for 4 s to evoke a tail current prior to returning to the holding potential. This sequence was repeated with an inter-pulse interval of 20 s. […] Evoked peak tail current amplitudes were continuously monitored throughout the experiment. Each compound was applied from low to high concentrations sequentially to the same cell for five minutes.
(§5) The percent inhibition of hERG channel was calculated by comparing the tail current amplitude before and after application of the compound, the current difference being normalized to control. The amplitude of the hERG peak tail current was calculated by measuring the tail current on stepping to −50 mV. The current was measured before and after each compound addition. […] Percent inhibition values were used to calculate the IC50 for each tested compound.

[5] = molecular target: T1, human ether-a-go-go-related gene (hERG) voltage-gated potassium channel
Protocol: as §3, §4, §5

[6] = test system: MRL/lpr mice; assay: Survival of treated MRL/lpr mice; type: in vivo; conditions: observed 70-80 days
Protocol: as §1, §2
The number of live and dead mice was recorded each day beginning from the first dosing day at age 15 weeks.

[7] = test system: MRL/lpr mice; assay: Skin lesions in treated MRL/lpr mice; type: in vivo; conditions: for mean score of skin lesions versus time (onset of skin inflammation and lesions): HCQ and R-HCQ, FIG. 3A
Protocol: as §1, §2
Inflammation and skin lesions in the MRL/lpr mice were scored twice per week from the regions of dorsal neck, forehead, snout, and ears using a previously described scoring scale. See Keil et al., 2016, Arthritis Res. Ther. 18:243. Briefly, animals with no skin lesions were scored as 0, those having minimal hair loss with redness and a few scattered lesions were scored as 1, and those with redness, scabbing, and hair loss with a small area of involvement were scored as 2.
The mean score of skin lesions in each group from Day 68 to Day 111 for vehicle and low dose groups and from Day 68 to Day 90 for high dose groups after first dosing were plotted and are shown in FIG. 3A.
The data was reanalyzed by comparing the average skin lesion scores for each treatment over the entire test period. The skin lesion scores from day 68 to day 111 after initial dosing were averaged for the vehicle and the low dose groups and compared, as shown in FIG. 3B. The skin lesion scores from day 68 to day 90 after initial dosing were averaged for the vehicle and the high dose groups and compared, as shown in FIG. 3C.

[8] = 25 μM, 48 h, PMA/ionomycin-stimulated PBMC
[9] = 25 μM, 72 h, PMA/ionomycin-stimulated PBMC
[10] = 50 μM, 48 h, PMA/ionomycin-stimulated PBMC
[11] = 50 μM, 72 h, PMA/ionomycin-stimulated PBMC
[12] = 100 μM, 48 h, PMA/ionomycin-stimulated PBMC
[13] = 100 μM, 72 h, PMA/ionomycin-stimulated PBMC

With `CCN(CCO)CCCC(C)Nc1ccnc2cc(Cl)ccc12` (racemic) [HCQ, Hydroxychloroquine] the “mean body weight vs vehicle” value ([1]; 20 mg/kg orally once daily, day 0 to day 111, FIG. 1A) was “No obvious difference in mean body weight”, the “mean body weight vs vehicle” value ([1]; 40 mg/kg orally once daily, day 0 to day 90, FIG. 1B) was “No obvious difference in mean body weight” and the “creatinine concentration in plasma” value ([2]; 20 mg/kg orally once daily) was “lower”. For the same molecule, the “IL-17 pg/mL (mean ± SD)” value [3, 8] was 480.4 ± 13.1 pg/mL, the “IL-17 pg/mL (mean ± SD)” value [3, 9] was 502.4 ± 20.7 pg/mL and the “IL-17 pg/mL (mean ± SD)” value [3, 10] was 344.8 ± 12.2 pg/mL. For the same molecule, the “IL-17 pg/mL (mean ± SD)” value [3, 11] was 341.1 ± 47.4 pg/mL, the “IL-17 pg/mL (mean ± SD)” value [3, 12] was 214.5 ± 15.3 pg/mL and the “IL-17 pg/mL (mean ± SD)” value [3, 13] was 203.0 ± 10.8 pg/mL. The inhibition at 25 µM ([3]; Homo sapiens, 25 μM, 48 h) was 3%, the inhibition at 25 µM ([3]; Homo sapiens, 25 μM, 72 h) was 23% and the inhibition at 50 µM ([3]; Homo sapiens, 50 μM, 48 h) was 30%. For the same molecule, the inhibition at 50 µM ([3]; Homo sapiens, 50 μM, 72 h) was 48%, the inhibition at 100 µM ([3]; Homo sapiens, 100 μM, 48 h) was 57% and the inhibition at 100 µM ([3]; Homo sapiens, 100 μM, 72 h) was 69%. It also gave an IC50 ([3]; Homo sapiens, PMA/ionomycin-stimulated PBMC, 48 h or 72 h, read-out: absolute IC50 of IL-17 inhibition) of 50 to 100 µM and an IC50 [4] of 4.84 µM.
With `CCN(CCO)CCCC(C)Nc1ccnc2cc(Cl)ccc12` (stereo not drawn) [R-HCQ, R-hydroxychloroquine] the IC50 [5] was 4.2 µM, the “creatinine concentration in plasma” value ([2]; 20 mg/kg orally once daily) was “lower” and the “creatinine concentration in plasma” value ([2]; 40 mg/kg orally once daily) was “lower”. For the same molecule, the “(%) inhibition” value ([3]; 25 μM, 48 h) was 5%, the “IL-17 pg/mL (mean ± SD)” value [3, 8] was 471.6 ± 32.9 pg/mL and the “(%) inhibition” value ([3]; 25 μM, 72 h) was 13%. For the same molecule, the “IL-17 pg/mL (mean ± SD)” value [3, 9] was 564.0 ± 72.9 pg/mL, the “(%) inhibition” value ([3]; 50 μM, 48 h) was 42% and the “IL-17 pg/mL (mean ± SD)” value [3, 10] was 289.4 ± 34.7 pg/mL. For the same molecule, the “(%) inhibition” value ([3]; 50 μM, 72 h) was 50%, the “IL-17 pg/mL (mean ± SD)” value [3, 11] was 326.8 ± 33.6 pg/mL and the “(%) inhibition” value ([3]; 100 μM, 48 h) was 69%. The “IL-17 pg/mL (mean ± SD)” value [3, 12] was 154.0 ± 18.1 pg/mL, the “(%) inhibition” value ([3]; 100 μM, 72 h) was 72% and the “IL-17 pg/mL (mean ± SD)” value [3, 13] was 179.2 ± 31.8 pg/mL.
With `CCN(CCO)CCC[C@H](C)Nc1ccnc2cc(Cl)ccc12` [S-HCQ, S-hydroxychloroquine] the IC50 [5] was 11 µM, the “fractional survival compared to vehicle, HCQ and R-HCQ” value ([6]; 20 mg/kg orally once daily, FIG. 2A) was “higher fractional survival” and the “fractional survival compared to vehicle, HCQ and R-HCQ” value ([6]; 40 mg/kg orally once daily, FIG. 2B) was “higher fractional survival”. For the same molecule, the “creatinine concentration in plasma” value ([2]; 40 mg/kg orally once daily) was “most significant decrease in creatinine concentration”, the “blood urea nitrogen (BUN) level in plasma” value ([2]; 40 mg/kg orally once daily, compared to any other treatments, FIG. 4A) was “significantly lower” and the “(%) inhibition” value ([3]; 25 μM, 48 h) was 13%. For the same molecule, the “IL-17 pg/mL (mean ± SD)” value [3, 8] was 432.6 ± 28.9 pg/mL, the “(%) inhibition” value ([3]; 25 μM, 72 h) was 25% and the “IL-17 pg/mL (mean ± SD)” value [3, 9] was 486.5 ± 8.9 pg/mL. The “(%) inhibition” value ([3]; 50 μM, 48 h) was 41%, the “IL-17 pg/mL (mean ± SD)” value [3, 10] was 292.0 ± 21.6 pg/mL and the “(%) inhibition” value ([3]; 50 μM, 72 h) was 45%. For the same molecule, the “IL-17 pg/mL (mean ± SD)” value [3, 11] was 354.6 ± 52.5 pg/mL, the “(%) inhibition” value ([3]; 100 μM, 48 h) was 57% and the “IL-17 pg/mL (mean ± SD)” value [3, 12] was 215.0 ± 24.6 pg/mL. For the same molecule, the “(%) inhibition” value ([3]; 100 μM, 72 h) was 62%, the “IL-17 pg/mL (mean ± SD)” value [3, 13] was 248.9 ± 38.9 pg/mL and the “average skin lesion score over the test period vs vehicle” value ([7]; 20 mg/kg (low dose), day 68 to day 111, t-test p<0.005, FIG. 3B) was “significantly reduced skin lesion scores”. For the same molecule, the “mean score of skin lesions versus time (onset of skin inflammation and lesions)” value ([7]; 20 mg/kg orally once daily, Day 68 to Day 111, compared to vehicle) was “superior in reducing the onset of skin inflammation and lesions”, the “average skin lesion score over the test period vs vehicle” value ([7]; 40 mg/kg (high dose), day 68 to day 90, t-test p<0.005, FIG. 3C) was “significantly reduced skin lesion scores” and the “mean score of skin lesions versus time (onset of skin inflammation and lesions)” value ([7]; 40 mg/kg orally once daily, Day 68 to Day 90, compared to vehicle) was “superior in reducing the onset of skin inflammation and lesions”.
For `C[C@H]1C[C@@H]2[C@H]([C@@H](O)C[C@@]3(C)[C@H]2CC[C@]3(O)C(=O)CO)[C@@]2(C)C=CC(=O)C=C12` [methylprednisolone], the “IL-17 pg/mL (mean ± SD)” value ([3]; 5 μM, 48 h, PMA/ionomycin-stimulated PBMC) was 266.7 ± 15.3 pg/mL, the “IL-17 pg/mL (mean ± SD)” value ([3]; 5 μM, 72 h, PMA/ionomycin-stimulated PBMC) was 282.0 ± 37.6 pg/mL and the inhibition at 5 µM ([3]; Homo sapiens, 5 μM, 48 h) was 46%. The inhibition at 5 µM ([3]; Homo sapiens, 5 μM, 72 h) was 57%.
